Assays:
Murine thymic T cells = assay: Murine thymic T cell proliferation (ConA stimulation, MTT assay); format: cell-based; conditions: for effect of mevalonate on inhibition of T cell proliferation: presence of 1 mM mevalonate; for inhibition of T cell proliferation: murine thymic T cells, different concentrations
Procedure: Murine thymic T cells were stimulated with Concanavalin A and incubated for 72 hr, and proliferation was then assessed by measuring viable cell number using the MTT assay (OD 570 nm proportional to viable cell number). Different concentrations of mevastatin and oxysterol alone (CP compounds; Panel A) or oxysterol combined with lanolin (Panel B) were added to the cells 1 hr following ConA treatment (FIG. 2).
T cells were incubated with different concentrations of mevastatin (CP 115) alone or in the presence of 1 mM mevalonate (MA). The inhibition of T cell proliferation by mevastatin was prevented by addition of mevalonic acid, the product of the HMG-CoA reductase reaction (FIG. 3).
Murine thymic T cells were incubated with different concentrations of 25-hydroxycholesterol (CP 105; Panel A) or an oxysterol combined with lanolin (C-010; Panel B) in the absence or presence of 1 mM mevalonate (MA).
To further test this synergistic effect, T cells were incubated with different concentrations of mevastatin alone or in combination with 0.25 μg/ml 25-hydroxycholesterol (CP 105; FIG. 5, Panel A) or 10 μg/ml of an oxysterol combined with lanolin (C-010; FIG. 5, Panel B). The data was expressed as percent of control proliferation. CP 105 and C-010 inhibited T cell proliferation 14% and 28% at the indicated concentrations, respectively. Thus minimally effective concentrations of 25-hydroxycholesterol and C-0010-010 decreased the IC50 of mevastatin by a factor greater than 10-fold (FIG. 5). This experiment confirmed that the inhibition of T cell proliferation by mevastatin is advantageously potentiated by oxysterols.
Murine thymic T cells were incubated with different concentrations of an inhibitor of geranylgeranyl transferase (GGTI).

NFAT = assay: NFAT-regulated reporter gene in transiently transfected Jurkat cells; format: cell-based, human; conditions: for NFAT activity induced by ionomycin and dominant active ras / NFAT activity stimulated by PMA and dominant active calcineurin: Jurkat cells
Excerpt: The effects of lovastatin on NFAT activation and IL-2 gene expression were investigated in Jurkat T cells (human leukemia T cells). Lovastatin inhibited the expression of an NFAT-regulated reporter gene in transiently transfected Jurkat cells stimulated with ionomycin and PMA or with thapsigargin + PMA.
NFAT is synergistically activated by the Ca^2+/calcineurin and PKC/ras/MAPK pathways. To gain further insight into the novel mechanism of action of lovastatin, dominant active forms of calcineurin and ras were expressed in Jurkat cells to bypass early signaling events mediated by ionomycin (i.e., Ca^2+) and PMA (i.e., PKC).

human IL-2 promoter = assay: Human IL-2 promoter activation in Jurkat cells; format: cell-based
Excerpt: (§1) The effects of lovastatin on NFAT activation and IL-2 gene expression were investigated in Jurkat T cells (human leukemia T cells).

[1] = system: RSV-driven control reporter gene; assay: RSV-driven control reporter gene in Jurkat cells; format: cell-based, human
Excerpt: as §1

IL-2 mRNA = IL-2 mRNA accumulation in stimulated Jurkat cells; format: cell-based, human; conditions: Jurkat cells stimulated with ionomycin and PMA
Excerpt: (§2) Since NFAT plays a critical role in IL-2 gene transcription, the effects of lovastatin on IL-2 mRNA levels and IL-2 secretion from stimulated lymphoid cells were investigated.

IL-2 = IL-2 secretion from stimulated Jurkat cells; format: cell-based, human
Excerpt: as §2

TNF-α = assay: TNF-alpha secretion from stimulated Jurkat cells; format: cell-based, human; conditions: ionomycin and PMA-stimulated Jurkat cells
[2] = system: RBL-2H3 mucosal mast cell line; assay: 3H-serotonin release (degranulation) from RBL-2H3 mast cells; format: cell-based
Excerpt: The RBL-2H3 mucosal mast cell line has been used extensively to study stimulus secretion coupling. Treatment with a calcium ionophore or antigenic crosslinking of the high affinity receptor for IgE on these cells leads to degranulation and the secretion of various proinflammatory mediators, including biogenic amines such as histamine and serotonin.

[3] = system: DNFB-induced contact hypersensitivity in mice; assay: DNFB-induced contact hypersensitivity in mice (ear swelling); format: in vivo, mouse; conditions: 1% topical, applied 30 minutes or one hour after challenge, 48 hours post-challenge
Procedure: The protocol involved shaving the posterior portion of the backs of anesthetized 7-8 week old female Balb/c mice with electric clippers. […] The concentration of DNCB in the sensitizing solution ranged from 0.5% to 4% w/v or 0.1 to 0.5% for DNFB. […] Post challenge ear thickness measurements were taken at 8, 16, 24, 32, 48, 56 and 72 hours. […] However, a swelling response of at least 50% above baseline was considered reasonable.
(§3) The percent suppression for each formulation was determined at 48 hours post-challenge.

[4] = system: oxazolone-induced contact hypersensitivity in mice; assay: Oxazolone-induced contact hypersensitivity in mice; format: in vivo, mouse; conditions: topical sensitizer oxazolone instead of DNFB
Procedure: Challenging mouse ears with haptens, such as 1-chloro-2,4-dinitrobenzene (DNCB), 2,4-dinitrofluorobenzene (DNFB), or oxazolone after a 5 day sensitization phase, induced severe swelling associated with an immune response that included a memory T cell infiltrate. Maximum swelling occurred between 24 and 48 hours after challenge. Thus, DNFB, DCNB and oxazolone were considered to induce delayed contact hypersensitivity.
The protocol involved shaving the posterior portion of the backs of anesthetized 7-8 week old female Balb/c mice with electric clippers. DNCB in acetone:olive oil (4:1), DNFB in acetone alone or oxazolone (15% oxazolone in 97% acetone/3% DMSO) was applied to the shaved area in a volume of 50 μl (DNCB), 100 μl (DNFB), or 20 μl (oxazolone). The concentration of DNCB in the sensitizing solution ranged from 0.5% to 4% w/v or 0.1 to 0.5% for DNFB. Five days after sensitization, the thickness of both ears was measured with a spring-loaded micrometer and both surfaces of the ears were challenged with either 10 μl of DNCB in acetone:olive oil ranging in concentration from 0.25%-2.5% w/v, 10 μl of DNFB in acetone at 0.1%, 10 μl 2% oxazolone in 97% acetone/3% DMSO, or vehicle alone. Post challenge ear thickness measurements were taken at 8, 16, 24, 32, 48, 56 and 72 hours. […]
as §3

Asthma patients = assay: Treatment of asthma patients with aerosolized lovastatin; format: in vivo, human; conditions: aerosolized form or nasal inhaler
[5] = system: TPA-induced ear swelling in mice; assay: TPA-induced ear swelling, mouse acute irritant dermatitis model; format: in vivo
Procedure: Mevastatin was tested topically at 0.5% with several oxysterols known to downregulate HMG-CoA reductase expression, including 25-hydroxycholesterol, in the mouse acute irritant dermatitis model. TPA was applied topically to the ears of mice and the resultant swelling response was measured 24 hr later. Compounds or vehicle alone were topically applied to ears 1 and 6 hr following TPA treatment. The data was expressed as a percent inhibition of the swelling response in the presence of compounds as compared to ears treated with vehicle only.
The phorbol ester 12-0-tetradecanoyl-13-phorbol acetate (TPA) is the active ingredient in […]. TPA induced skin inflammation peaked between 24 and 30 hours when the ear was the target and between 8 and 16 hours when the flank was the target. These two alternative targets allowed to determine both the short and the longer term activity of different compounds in suppressing TPA-induced inflammation. […]
The model systems described in Example 9 were employed, using TPA challenge as a model for acute inflammation. […] The percent suppression for each formulation was determined as described in Example 9 at 30 hours post-challenge (for TPA). Results are reported as the percent suppression of inflammation compared to untreated controls, as measured by ear thickness.

C[C@H](CCCC(C)(C)O)[C@H]1CC[C@H]2[C@@H]3CC=C4C[C@@H](O)CC[C@]4(C)[C@H]3CC[C@]12C [25-hydroxycholesterol]
inhibition at 0.25 µg/mL (Murine thymic T cells; Mus musculus, T-cell, 0.25 μg/ml): 14% | effect of mevalonate on inhibition of T cell proliferation (Murine thymic T cells): not prevented by mevalonic acid

COC(=O)[C@H](CC(C)C)NC(=O)c1ccc(NC[C@@H](N)CS)cc1-c1ccccc1 [GGTI-286]
inhibition of T cell proliferation (Murine thymic T cells): Dose-dependent inhibition

CN(C)CCCn1cc(C2=C(c3c[nH]c4ccccc34)C(=O)NC2=O)c2ccccc21 [Gö6850]
NFAT activity induced by ionomycin and dominant active ras (NFAT): inactive | NFAT activity stimulated by PMA and dominant active calcineurin (NFAT): inhibited

CC[C@H](C)C(=O)O[C@H]1C[C@@H](C)C=C2C=C[C@H](C)[C@H](CC[C@@H]3C[C@@H](O)CC(=O)O3)[C@H]21 [lovastatin]
NFAT activity induced by ionomycin and dominant active ras (NFAT): strongly inhibited | NFAT activity stimulated by PMA and dominant active calcineurin (NFAT): relatively insensitive | expression of NFAT-regulated reporter gene (NFAT; Jurkat cells stimulated with ionomycin and PMA or thapsigargin + PMA): inhibited | effect of mevalonic acid on inhibition of NFAT reporter activity (NFAT; preincubation of Jurkat cells with mevalonic acid): did not reverse | IC50 (NFAT; stated as similar to the IL-2 secretion IC50, read-out: IC50, inhibition of NFAT-dependent reporter activity): ~12 µM | activation of the human IL-2 promoter (human IL-2 promoter): inhibited activation | transcription from RSV-driven control reporter gene [1]: did not affect | IL-2 mRNA accumulation (IL-2 mRNA): inhibited | IC50 (IL-2; Jurkat cells stimulated with ionomycin and PMA, read-out: IC50, inhibition of IL-2 secretion): 12 µM | effect of mevalonic acid on inhibition of IL-2 secretion (IL-2; addition of mevalonic acid): not reversed | TNF-α secretion (TNF-α): inhibit | release of 3H-serotonin ([2]; RBL-2H3 cells stimulated with antigen or calcium ionophore, dose-dependent): inhibited | effect of mevalonic acid on inhibition of 3H-serotonin release ([2]; co-incubation with mevalonic acid): not reversed | suppression of DNFB-induced delayed contact hypersensitivity (ear swelling) [3]: reduced delayed contact hypersensitivity | suppression of oxazolone-induced contact hypersensitivity [4]: dose-dependent | relief of lung constriction and inflammation in asthma patients (Asthma patients): more effective relief of lung constriction and inflammation

CC[C@H](C)C(=O)O[C@H]1CCC=C2C=C[C@H](C)[C@H](CC[C@@H]3C[C@@H](O)CC(=O)O3)[C@H]21 [mevastatin]
percent suppression of TPA-induced acute inflammation, measured by ear thickness ([5]; 0.5% in ethanol/cyclohexane (1:1), applied 30 minutes or one hour after challenge, 30 hours post-challenge): 58% | inhibition of TPA-induced ear swelling ([5]; 0.5% topical, applied 1 and 6 hr after TPA, swelling measured 24 hr later): significantly inhibited | inhibition of T cell proliferation (Murine thymic T cells): potently inhibit | effect of mevalonate on inhibition of T cell proliferation (Murine thymic T cells): reversed by mevalonate

Source: patent US20020010128A1, “Treatment of hyperproliferative, inflammatory and related mucocutaneous disorders using inhibitors of mevalonate synthesis and metabolism” (priority 2000, published 2002)
